Experimental data from patent publication US8614064B2, “Methods of diagnosing atherosclerosis by measuring ApoCI” (The Johns Hopkins University, priority 2003, dated 2013).

Assays:
[1] = tested on: human aortic smooth muscles cells (ASMC); experiment: DNA laddering assay; assay type: cell-based; settings: ApoCI or ApoCIII 2.5 μg/mL, TNF-α positive control
Protocol: FIGS. 1A-1C depict the effect of apolipoproteins on apoptosis in human aortic smooth muscles cells (ASMC). ASMC were grown on sterilized glass cover slips and incubated for 24 hours with media alone (control), ApoCIII (negative control, 2.5 μg/mL medium), ApoCI (2.5 μg/mL medium), ApoCI-enriched HDL (1 μg apoA-I/mL medium), or ApoCI-poor HDL (5 μg apoA-I/mL medium) for 24 hours. Cells were then fixed with ethanol-acetic acid (3:1 volume/volume) and washed 3 times with phosphate-buffered saline. The cells were then stained with DAPI reagent, mounted on a glass cover slide, and subjected to fluorescence microscopy. FIG. 1A: The nucleus of normal cells stains blue and the nucleus of apoptotic cells stains is fragmented white. FIG. 1B: 300 to 500 cells in each sample were counted and the percent of apoptotic cells was plotted. Values are mean±SD; **P<0.01, ***P<0.001. FIG. 1C: DNA ladder assay. Confluent cultures of ASMC were incubated with control medium alone, ApoCI (2.5 μg/mL medium), ApoCIII (negative control, 2.5 μg/mL medium), and TNF-α (positive control, 20 ng/mL medium). Genomic DNA was extracted and 10 μg DNA was subjected to agarose gel electrophoresis. The gels were calibrated with commercially available DNA standards. After electrophoresis, the gels were stained with ethidium bromide and then photographed.
Cells were treated with either TNF-α (30 ng/ml), ApoCI or ApoCIII (2.5 μg/ml) for 6 h. The cells were then washed twice with minimal essential medium and harvested with buffer (10 mM HEPES, pH 7.4. 5 mM EDTA, 0.25 mM EGTA, 50 mM NaF, 5 mM β-mercaptoethanol, 0.35 M sucrose, 0.1% Nonidet and protease inhibitors, 1 mM phenylmethylsulfonyl fluoride, 2 μg/ml leupeptin and 5 μg/ml pepstatin), and pelleted. Genomic DNA was prepared employing standard protocol. Genomic DNA was subjected to electrophoresis, stained with ethidium bromide and the gel was photographed. The gel was calibrated using DNA fragments of known molecular weight.

cytochrome c = experiment: Immunofluorescence of cytochrome c in human cultured aortic smooth muscle cells; assay type: cell-based; settings: 24 h
Protocol: FIGS. 5A-5C depict the effect of ApoCI, ApoCIII, ApoCI-enriched HDL, and GW4869 on cytochrome c release in ASMC. After treatment of confluent cells for 24 hours with ApoCI (2.5 μg/mL medium), ApoCIII (2.5 μg/mL medium), or ApoCI-enriched HDL (1 μg apoA-I/mL medium), the cells were lysed. The cell lysate was used as the source of cytochrome c, and the pellet was used as a source of caspase-3. The cell lysates were separated by SDS-polyacrylamide gel electrophoresis, blotted onto nitrocellulose, and cytochrome c detected using a polyclonal antibody against cytochrome c (FIG. 5A, top panel). The gels were then subjected to densitometric scanning (FIG. 5B, middle panel). In a separate experiment (FIG. 5C, right), confluent cells were grown on cover slips and pretreated with serum-free medium for 30 minutes. The cells were then incubated with control medium, ApoCI (2.5 μg/mL medium), TNF-α (20 ng/mL), or ApoCI (2.5 μg/mL)+GW4869 (20 μmol/L) for 24 hours. The cells were then washed, treated with a primary anti-cytochrome c antibody, washed with phosphate-buffered saline, and treated with a fluorescein isothiocyanate-conjugated anti-rabbit IgG (FIG. 5C, lower panel).
AOSMC (5×10^3) were grown on cover slips to confluence and pretreated with serum free medium for 30 min as described above. […]

caspase-3 = experiment: Caspase-3 level, Western immunoblot, ASMC; assay type: cell-based, human; settings: compared with control medium; ApoCI and ApoCIII 2.5 μg/ml, ApoCI-enriched HDL 1 μg apoA-I/ml, ApoCI-poor HDL 5 μg apoA-I/ml
Protocol: After incubation with ApoCI (2.5 μg/ml medium), ApoCIII (2.5 μg/ml medium), apoC-1-enriched HDL (1 μg apoA-I/ml medium), or ApoCI-poor HDL (5 μg ApoA-I/ml medium) for 24 h and 48 h, the cells were subjected to extraction with a buffer (30 mM HEPES, pH 7.5, 10 mM KCl, 1.5 mM MgCl2, 5 mM DTI, 2 mM phenylmethylsulfonyl fluoride (PMSF), 1% Nonidet P-40, 0.5% sodium deoxycholate, 0.1% SDS, 2 μg/ml leupeptin, 2 μg/ml aprotinin, 0.5 μg/ml benzamidine, and 250 mM sucrose) on ice for 30 min. Next, the samples were centrifuged at 10,000×g at 4° C. The supernatant was utilized as a source of cytochrome c in Western immunoblot assay. The pellets were lysed in RIPA buffer (phosphate buffer saline, 1% Nonidet P-40, 0.5% sodium deoxycholate, 0.1% SDS, and cocktail of inhibitors described above). The samples were passed through a 21-gauge needle to shear the DNA. Next, 10 μl of PMSF (10 mg/ml) was added and incubation continued for 60 min on ice. The samples were centrifuged at 10,000-×g for 10 min at 4° C. The supernatants were used as a source of protein in Western immunoblot assay for determination of caspase activation. Proteins (100 μg) were separated using 4-15% SDS-polyacrylamide gel under denaturing conditions and electro transferred onto nitrocellulose. […]

## Apolipoprotein C-I (TPDVSSALDKLKEFGNTLEDKARELISRIKQSELSAKMREWFSETFQKVKEKLKIDS; UniProt P02654 27-83, looked up) [ApoCI, 6.6-kDa single-chain plasma protein of 57 amino acids; purified human ApoCI purchased from Academy Bio-Medical Company]
[1]
  DNA laddering on agarose gel (FIG. 1C): exhibited DNA laddering
Cytochrome c; ApoCI 2.5 μg/mL
  release of cytochrome c from mitochondria into the cytoplasm (immunofluorescence): marked increase
caspase-3
  stimulation of caspase-3 level/expression: 4 fold

## ApoCIII: purified human ApoCIII purchased from Academy Bio-Medical Company, used as negative control
[1]
  DNA laddering on agarose gel (FIG. 1C): did not exhibit significant DNA laddering
caspase-3
  stimulation of caspase-3 level/expression: to a lesser extent than ApoCI-enriched HDL

## O=C(/C=C/c1ccc(/C=C/C(=O)Nc2ccc(C3=NCCN3)cc2)cc1)Nc1ccc(C2=NCCN2)cc1 [GW4869]
Cytochrome c; ApoCI 2.5 μg/mL + GW4869 20 μmol/L
  effect of GW4869 on ApoCI-induced cytochrome c release (immunofluorescence): inhibited
